Test systems include NCI/ADR-RES ovarian; MALME-3M melanoma; DU-145 prostate; SK-MEL-28 melanoma; CAKI-1 renal; PC-3 prostate; SNB-75 CNS; HT29 colon; OVCAR-5 ovarian; M14 melanoma.
What all share (experiment): DTP human tumour cell line panel, 48 h

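Step 1: Grow cells in 96-well plates. Step 2: Expose to compound for 48 hours at 5 concentrations. Step 3: Interpolate endpoints linearly; if unreached, use highest concentration. Here, GI50 denotes the concentration required for 50% inhibition of growth. At the TGI there is no net growth.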 Some results are limits rather than exact numbers.

What is called GI50 is the concentration that inhibits growth by half. In general, TGI refers to the concentration giving total growth inhibition. High values mean lower sensitivity of the cells, low ones greater sensitivity of the cells. Turning to `COC(=O)[C@H](Cc1cn(C)cn1)NC(=O)[C@@H](NC(=O)Nc1cc(C(F)(F)F)cc(C(F)(F)F)c1)C(C)(C)C`, the GI50 with NCI/ADR-RES ovarian, in the experiment on MALME-3M melanoma, in the experiment on DU-145 prostate, in the experiment with SK-MEL-28 melanoma, in the experiment with CAKI-1 renal and in the experiment on PC-3 prostate was above 10 µM in each case. Also, the GI50 in the experiment with SNB-75 CNS, in the experiment on HT29 colon, in the experiment on OVCAR-5 ovarian and in the experiment on M14 melanoma was above 10 µM in each case. Also, the TGI in the experiment with NCI/ADR-RES ovarian, in the experiment with MALME-3M melanoma, with DU-145 prostate, with SK-MEL-28 melanoma, in the experiment on CAKI-1 renal and in the experiment with PC-3 prostate was above 10 µM in each case. The TGI with SNB-75 CNS, in the experiment on HT29 colon, in the experiment with OVCAR-5 ovarian and in the experiment with M14 melanoma was above 10 µM in each case.
For the compound `CCCC(=O)Nc1c(I)cc(I)c(CC(CC)C(=O)O)c1I` (stereo not given), the GI50 in the experiment on NCI/ADR-RES ovarian, in the experiment on MALME-3M melanoma, in the experiment on DU-145 prostate, with SK-MEL-28 melanoma, with CAKI-1 renal and in the experiment with PC-3 prostate was above 100 µM throughout. In addition, the GI50 in the experiment with SNB-75 CNS, in the experiment with HT29 colon, in the experiment with OVCAR-5 ovarian and in the experiment on M14 melanoma was above 100 µM throughout. Further, the TGI with NCI/ADR-RES ovarian, in the experiment on MALME-3M melanoma, with DU-145 prostate, in the experiment with SK-MEL-28 melanoma, with CAKI-1 renal and with PC-3 prostate was above 100 µM in each case. For the same compound, the TGI with SNB-75 CNS, in the experiment on HT29 colon, in the experiment with OVCAR-5 ovarian and in the experiment with M14 melanoma was above 100 µM throughout.
As for `CCCCCCC/C=C1\CCC(CN(C)C)C1=O` (stereo not given), the TGI in the experiment with NCI/ADR-RES ovarian was 14.6 µM; in the experiment with MALME-3M melanoma it was 25.3 µM; in the experiment on DU-145 prostate, 27.8 µM; in the experiment with SK-MEL-28 melanoma, 31 µM; in the experiment with CAKI-1 renal it was 31.6 µM; in the experiment with PC-3 prostate it was 27.6 µM. Also, the TGI in the experiment on SNB-75 CNS amounted to 33.1 µM; in the experiment with HT29 colon, 29.9 µM; with OVCAR-5 ovarian, 36.7 µM; with M14 melanoma, 23.6 µM.
For `CCCCCCCCCCCCC(NC(C)=O)(C(=O)OCC)C(=O)OCC`, the GI50 with NCI/ADR-RES ovarian was 10.3 µM; in the experiment with MALME-3M melanoma it was 12.5 µM; in the experiment on DU-145 prostate, 15.1 µM; in the experiment with SK-MEL-28 melanoma it was 13.5 µM; in the experiment with CAKI-1 renal, 10.6 µM; in the experiment with PC-3 prostate it was 7.03 µM. Moreover, the results for the GI50 with SNB-75 CNS, with OVCAR-5 ovarian and with M14 melanoma were 11.3 µM, 13.7 µM and 12.7 µM, respectively. Moreover, the TGI with NCI/ADR-RES ovarian stood at 23.7 µM; with MALME-3M melanoma, 29.1 µM; in the experiment on DU-145 prostate it was 28.6 µM; in the experiment with SK-MEL-28 melanoma it was 26.9 µM; in the experiment on CAKI-1 renal, 27.4 µM; in the experiment with PC-3 prostate, 21.1 µM. Moreover, the values for the TGI in the experiment with SNB-75 CNS, in the experiment with OVCAR-5 ovarian and with M14 melanoma were 23.8 µM, 27.3 µM and 27.3 µM, respectively.
Consider `N#Cc1ccc(NC(=O)Nc2nc3ccc(OC(F)(F)F)cc3s2)cc1`, for which the GI50 in the experiment with NCI/ADR-RES ovarian is 1.55 µM; in the experiment on MALME-3M melanoma it was 0.843 µM; in the experiment on DU-145 prostate it was 2.7 µM; in the experiment with SK-MEL-28 melanoma, 2.31 µM; in the experiment with CAKI-1 renal it was 1.59 µM; in the experiment with PC-3 prostate, 1.36 µM. The GI50 in the experiment on SNB-75 CNS was 1.84 µM; in the experiment with HT29 colon it was 2.07 µM; in the experiment on OVCAR-5 ovarian, 4.28 µM; in the experiment with M14 melanoma, 2.37 µM. In addition, the TGI with NCI/ADR-RES ovarian was found to be 8.39 µM; in the experiment on MALME-3M melanoma, 5.92 µM; with DU-145 prostate it was 13.6 µM; in the experiment on SK-MEL-28 melanoma it was 12.3 µM; with CAKI-1 renal it was 9.12 µM; in the experiment with PC-3 prostate, 12.2 µM. In addition, the TGI came to 7.19 µM with SNB-75 CNS, 10 µM in the experiment on HT29 colon, 16.1 µM in the experiment with OVCAR-5 ovarian and 6.53 µM in the experiment on M14 melanoma.
As for `CC1=CC2=C(C#N)C(=O)OC2(C)C(c2ccccc2)C1` (stereo not given), the TGI with NCI/ADR-RES ovarian, with MALME-3M melanoma, with DU-145 prostate, with SK-MEL-28 melanoma, with PC-3 prostate and in the experiment on SNB-75 CNS was above 100 µM each time. Further, the TGI in the experiment on HT29 colon, with OVCAR-5 ovarian and in the experiment on M14 melanoma was above 100 µM throughout.
Turning to `COc1ccc(-c2cc(-c3ccc(Cl)cc3)nc(SCCCCCCC(=O)NO)n2)cc1`, the GI50 was 0.876 µM in the experiment with NCI/ADR-RES ovarian; 1.14 µM in the experiment on MALME-3M melanoma; 1.76 µM with DU-145 prostate; 2.43 µM in the experiment on SK-MEL-28 melanoma; 1.32 µM in the experiment with CAKI-1 renal; 1.69 µM with PC-3 prostate. The GI50 was 1.36 µM in the experiment with SNB-75 CNS, 1.71 µM in the experiment on HT29 colon, 1.66 µM in the experiment on OVCAR-5 ovarian and 1.26 µM with M14 melanoma. Besides, the TGI in the experiment with NCI/ADR-RES ovarian came out at 3.83 µM; in the experiment with MALME-3M melanoma, 5.5 µM; with DU-145 prostate, 15.4 µM; with SK-MEL-28 melanoma, 11.7 µM; in the experiment with CAKI-1 renal it was 7.47 µM; in the experiment on PC-3 prostate, 12.7 µM. Further, the TGI with SNB-75 CNS came to 23.8 µM; with HT29 colon, 16.6 µM; in the experiment on OVCAR-5 ovarian it was 12.5 µM; with M14 melanoma, 4.74 µM.
On to `COc1c(N2CCN(CN3C(=O)C(=O)c4ccccc43)C(C)C2)c(F)cc2c(=O)c(C(=O)O)cn(C3CC3)c12` (stereo not given), for which the GI50 with NCI/ADR-RES ovarian was above 100 µM; with DU-145 prostate, 49.9 µM; with SK-MEL-28 melanoma it was above 100 µM; in the experiment on CAKI-1 renal it was above 100 µM; with PC-3 prostate, above 100 µM; in the experiment on SNB-75 CNS, above 100 µM. In addition, the figures for the GI50 in the experiment with HT29 colon, in the experiment on OVCAR-5 ovarian and with M14 melanoma were 47.3 µM, 13.6 µM and above 100 µM, respectively. The TGI in the experiment with NCI/ADR-RES ovarian, in the experiment on DU-145 prostate, in the experiment on SK-MEL-28 melanoma, with CAKI-1 renal, in the experiment with PC-3 prostate and with SNB-75 CNS was above 100 µM each time. The TGI in the experiment on HT29 colon was above 100 µM; in the experiment on OVCAR-5 ovarian, 99.4 µM; with M14 melanoma, above 100 µM.

The record behind these values is PubChem BioAssay (NCI).
